Legend:
Format in all cases: in vivo
ECHINOCHLOA CRUS-GALLI = assay: Preemergence evaluation in the presence of transplanted rice under flooded paddy conditions (Example 43), ECHCG (Barnyard Grass); parameters: key: visual rating on a 0-9 scale, compared with control; conditions: applied three days after sowing, 25 to 30 days after treatment
Description: (§1) Results of herbicide evaluation are expressed on a rating scale (0-9). The scale is based upon a visual observation of plant stand, vigor, malformation, size, chlorosis and overall plant appearance as compared with a control.
(§2) In this example, Deluvian paddy soil (Toyokawa paddy soil) is placed in plastic pots, 100cm^2 x 9 cm in depth. Water is added to the level of the soil surface in the pot and the mixture is paddled 3 cm in depth.
(§3) Pots are then variously sown with monocotyledenous weed seeds and tubers at 0-2 cm in soil depth, as well as transplanted rice plants at the 2.5 leaf stage. The rice plants are transplanted at about 3 cm soil depth. Water is then added to all of the pots to 3 cm deep and kept at a depth of 3 cm for the duration of the test. Test compounds are applied in the manner described in Example 42 three days after transplanting the rice plants and sowing the weed seeds and tubers. The pots are then placed on greenhouse benches and cared for in the conventional manner. Tests are examined at 25 to 30 days after treatment and rated according to the rating system provided in Example 40. The compounds evaluated are reported by compound number given in Example 40.

SCIRPUS JUNCOIDES = assay: Preemergence evaluation in the presence of transplanted rice under flooded paddy conditions (Example 43), SCPJU (Bulrush, Japanese); parameters: key: visual rating on a 0-9 scale, compared with control; conditions: applied three days after sowing, 25 to 30 days after treatment
Description: as §1, §2, §3

SAGITTARIA PYGMAEA = assay: Preemergence evaluation in the presence of transplanted rice under flooded paddy conditions (Example 43), SAGPY (Arrowhead (Pygmaea)); parameters: key: visual rating on a 0-9 scale, compared with control; conditions: applied three days after sowing, 25 to 30 days after treatment
Description: as §1, §2, §3

CYPERUS DIFFORMIS = assay: Preemergence evaluation in the presence of transplanted rice under flooded paddy conditions (Example 43), CYPDI (Flatsedge, smallflower); parameters: key: visual rating on a 0-9 scale, compared with control; conditions: applied three days after sowing, 25 to 30 days after treatment
Description: as §1, §2, §3

[1] = system: ORYZA SATIVA, L. CV. KOSHIHIKARI; assay: Post-transplant rice evaluation under flooded paddy conditions (Example 43), ORYSAK (Rice, Koshihikari); parameters: key: visual rating on a 0-9 scale, compared with control; conditions: applied three days after transplanting rice, 25 to 30 days after treatment
Description: as §1, §2, §3

[…] = Preemergence evaluation in the presence of transplanted rice under flooded paddy conditions (Example 43), MOOVA (Monochoria); conditions: applied three days after sowing, 25 to 30 days after treatment
Description: as §1, §2, §3

[2] = system: ABUTILON THEOPHRASTI, MEDIC.; assay: Preemergence herbicidal evaluation, ABUTH (Velvetleaf); conditions: four to five weeks after treatment
Procedure, shortened: (§4)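 Rated 0-9 by visual comparison with control (stand, vigor, malformation, size, chlorosis, overall appearance) four to five weeks after preemergence soil spray. Dose equivalent to about 0.125 to 0.50 kg per hectare, applied in aqueous acetone to freshly seeded cups kept in greenhouse.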

[3] = system: TRITICUM AESTIVUM, CV. APOLLO; assay: Preemergence herbicidal evaluation, TRZAWO (Wheat, Winter, CV. APOLLO); conditions: four to five weeks after treatment
Procedure, shortened: as §4

[4] = system: ECHINOCHLOA CRUS-GALLI, (L) BEAU; assay: Preemergence herbicidal evaluation, ECHCG (Barnyardgrass); conditions: four to five weeks after treatment
Procedure, shortened: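 In this preemergence herbicide test, cups holding seeds of ECHCG sown in potting soil over roughly one inch of soil were treated and then grown under conventional greenhouse care. Tests were ended four to five weeks after treatment, and injury was scored 0-9 from stand, vigor, malformation, size, chlorosis and overall appearance relative to a control.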

Compound: COC(=O)Cn1c(=O)n(C)c(=O)n(-c2cc(Oc3c(F)cc(C(F)(F)F)cc3Cl)ccc2F)c1=O [Compound 4, Methyl 3-{5-[(2-chloro-α,α,α,6-tetrafluoro-p-tolyl)oxy]-2-fluorophenyl}tetrahydro-5-methyl-2,4,6-trioxo-s-triazine-1(2H)-acetate]
- Herbicidal effect rating, ECHCG (ECHINOCHLOA CRUS-GALLI; 0.032 kg/ha): 9.0
- Herbicidal effect rating, ECHCG (ECHINOCHLOA CRUS-GALLI; 0.063 kg/ha): 9.0
- Herbicidal effect rating, ECHCG (ECHINOCHLOA CRUS-GALLI; 0.125 kg/ha): 9.0
- Herbicidal effect rating, ECHCG (ECHINOCHLOA CRUS-GALLI; 0.250 kg/ha): 9.0
- Herbicidal effect rating, SCPJU (SCIRPUS JUNCOIDES; 0.032 kg/ha): 7.0
- Herbicidal effect rating, SCPJU (SCIRPUS JUNCOIDES; 0.063 kg/ha): 9.0
- Herbicidal effect rating, SCPJU (SCIRPUS JUNCOIDES; 0.125 kg/ha): 9.0
- Herbicidal effect rating, SCPJU (SCIRPUS JUNCOIDES; 0.250 kg/ha): 9.0
- Herbicidal effect rating, SAGPY (SAGITTARIA PYGMAEA; 0.032 kg/ha): 0.0
- Herbicidal effect rating, SAGPY (SAGITTARIA PYGMAEA; 0.063 kg/ha): 2.0
- Herbicidal effect rating, SAGPY (SAGITTARIA PYGMAEA; 0.125 kg/ha): 6.0
- Herbicidal effect rating, SAGPY (SAGITTARIA PYGMAEA; 0.250 kg/ha): 9.0
- Herbicidal effect rating, CYPDI (CYPERUS DIFFORMIS; 0.032 kg/ha): 9.0
- Herbicidal effect rating, CYPDI (CYPERUS DIFFORMIS; 0.063 kg/ha): 9.0
- Herbicidal effect rating, CYPDI (CYPERUS DIFFORMIS; 0.125 kg/ha): 9.0
- Herbicidal effect rating, CYPDI (CYPERUS DIFFORMIS; 0.250 kg/ha): 9.0
- Herbicidal effect rating, ORYSAK ([1]; 0.032 kg/ha): 1.0
- Herbicidal effect rating, ORYSAK ([1]; 0.063 kg/ha): 4.0
- Herbicidal effect rating, ORYSAK ([1]; 0.125 kg/ha): 7.0
- Herbicidal effect rating, ORYSAK ([1]; 0.250 kg/ha): 9.0
- Herbicidal effect rating, MOOVA ([…]; 0.032 kg/ha): 9.0
- Herbicidal effect rating, MOOVA ([…]; 0.063 kg/ha): 9.0
- Herbicidal effect rating, MOOVA ([…]; 0.125 kg/ha): 9.0
- Herbicidal effect rating, MOOVA ([…]; 0.250 kg/ha): 9.0

Compound: COC(=O)Cn1c(=O)[nH]c(=O)n(-c2cc(Oc3ccc(C(F)(F)F)cc3Cl)ccc2[N+](=O)[O-])c1=O [Compound 8, Methyl 3-{5-[(2-chloro-α,α,α-trifluoro-p-tolyl)oxy]-2-nitrophenyl}tetrahydro-2,4,6-trioxo-s-triazine-1(2H)-acetate]
- Herbicidal effect rating, ECHCG (ECHINOCHLOA CRUS-GALLI; 0.032 kg/ha): 8.0
- Herbicidal effect rating, ECHCG (ECHINOCHLOA CRUS-GALLI; 0.063 kg/ha): 8.0
- Herbicidal effect rating, ECHCG (ECHINOCHLOA CRUS-GALLI; 0.125 kg/ha): 9.0
- Herbicidal effect rating, ECHCG (ECHINOCHLOA CRUS-GALLI; 0.250 kg/ha): 9.0
- Herbicidal effect rating, SCPJU (SCIRPUS JUNCOIDES; 0.032 kg/ha): 1.0
- Herbicidal effect rating, SCPJU (SCIRPUS JUNCOIDES; 0.063 kg/ha): 5.0
- Herbicidal effect rating, SCPJU (SCIRPUS JUNCOIDES; 0.125 kg/ha): 7.0
- Herbicidal effect rating, SCPJU (SCIRPUS JUNCOIDES; 0.250 kg/ha): 8.0
- ABUTH rating ([2]; Rate 0.125 kg/ha): 9.0
- ABUTH rating ([2]; Rate 0.250 kg/ha): 9.0
- ABUTH rating ([2]; Rate 0.500 kg/ha): 9.0
- TRZAWO rating ([3]; Rate 0.125 kg/ha): 3.0
- TRZAWO rating ([3]; Rate 0.250 kg/ha): 3.0
- TRZAWO rating ([3]; Rate 0.500 kg/ha): 3.0
- Herbicidal effect rating, SAGPY (SAGITTARIA PYGMAEA; 0.032 kg/ha): 1.0
- Herbicidal effect rating, SAGPY (SAGITTARIA PYGMAEA; 0.063 kg/ha): 3.0
- Herbicidal effect rating, SAGPY (SAGITTARIA PYGMAEA; 0.125 kg/ha): 6.0
- Herbicidal effect rating, SAGPY (SAGITTARIA PYGMAEA; 0.250 kg/ha): 8.0
- ECHCG rating ([4]; Rate 0.125 kg/ha): 0.0
- ECHCG rating ([4]; Rate 0.250 kg/ha): 0.0
- ECHCG rating ([4]; Rate 0.500 kg/ha): 0.0
- Herbicidal effect rating, CYPDI (CYPERUS DIFFORMIS; 0.032 kg/ha): 7.0
- Herbicidal effect rating, CYPDI (CYPERUS DIFFORMIS; 0.063 kg/ha): 9.0
- Herbicidal effect rating, CYPDI (CYPERUS DIFFORMIS; 0.125 kg/ha): 9.0
- Herbicidal effect rating, CYPDI (CYPERUS DIFFORMIS; 0.250 kg/ha): 9.0
- Herbicidal effect rating, ORYSAK ([1]; 0.032 kg/ha): 2.0
- Herbicidal effect rating, ORYSAK ([1]; 0.063 kg/ha): 3.0
- Herbicidal effect rating, ORYSAK ([1]; 0.125 kg/ha): 2.0
- Herbicidal effect rating, ORYSAK ([1]; 0.250 kg/ha): 6.0
- Herbicidal effect rating, MOOVA ([…]; 0.032 kg/ha): 7.0
- Herbicidal effect rating, MOOVA ([…]; 0.063 kg/ha): 9.0
- Herbicidal effect rating, MOOVA ([…]; 0.125 kg/ha): 9.0
- Herbicidal effect rating, MOOVA ([…]; 0.250 kg/ha): 9.0
